The text below walks through data of patent US20230382925A1, “MODULATORS OF CYSTIC FIBROSIS TRANSMEMBRANE CONDUCTANCE REGULATOR” (VERTEX PHARMACEUTICALS INCORPORATED, priority 2020, published 2023).

In this test the target is CFTR (Homo sapiens, UniProt P13569). In words: Membrane Potential Dye, Enteroid Assay B. It is filed as cell-based. In a few lines: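 Human intestinal enteroid cells exposed to compound 18-24 h at 37 °C, then loaded with methyl oxonol membrane-potential dye plus CaCC blockers. Chloride transport triggered in chloride-free buffer with 10 μM forskolin, 100 μM IBMX, 300 nM Compound III; fluorescence read 15 min, expressed as % of triple-corrector/potentiator combination control.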
Sequence of CFTR (P13569 with tags, fused parts or gaps DEL508-508): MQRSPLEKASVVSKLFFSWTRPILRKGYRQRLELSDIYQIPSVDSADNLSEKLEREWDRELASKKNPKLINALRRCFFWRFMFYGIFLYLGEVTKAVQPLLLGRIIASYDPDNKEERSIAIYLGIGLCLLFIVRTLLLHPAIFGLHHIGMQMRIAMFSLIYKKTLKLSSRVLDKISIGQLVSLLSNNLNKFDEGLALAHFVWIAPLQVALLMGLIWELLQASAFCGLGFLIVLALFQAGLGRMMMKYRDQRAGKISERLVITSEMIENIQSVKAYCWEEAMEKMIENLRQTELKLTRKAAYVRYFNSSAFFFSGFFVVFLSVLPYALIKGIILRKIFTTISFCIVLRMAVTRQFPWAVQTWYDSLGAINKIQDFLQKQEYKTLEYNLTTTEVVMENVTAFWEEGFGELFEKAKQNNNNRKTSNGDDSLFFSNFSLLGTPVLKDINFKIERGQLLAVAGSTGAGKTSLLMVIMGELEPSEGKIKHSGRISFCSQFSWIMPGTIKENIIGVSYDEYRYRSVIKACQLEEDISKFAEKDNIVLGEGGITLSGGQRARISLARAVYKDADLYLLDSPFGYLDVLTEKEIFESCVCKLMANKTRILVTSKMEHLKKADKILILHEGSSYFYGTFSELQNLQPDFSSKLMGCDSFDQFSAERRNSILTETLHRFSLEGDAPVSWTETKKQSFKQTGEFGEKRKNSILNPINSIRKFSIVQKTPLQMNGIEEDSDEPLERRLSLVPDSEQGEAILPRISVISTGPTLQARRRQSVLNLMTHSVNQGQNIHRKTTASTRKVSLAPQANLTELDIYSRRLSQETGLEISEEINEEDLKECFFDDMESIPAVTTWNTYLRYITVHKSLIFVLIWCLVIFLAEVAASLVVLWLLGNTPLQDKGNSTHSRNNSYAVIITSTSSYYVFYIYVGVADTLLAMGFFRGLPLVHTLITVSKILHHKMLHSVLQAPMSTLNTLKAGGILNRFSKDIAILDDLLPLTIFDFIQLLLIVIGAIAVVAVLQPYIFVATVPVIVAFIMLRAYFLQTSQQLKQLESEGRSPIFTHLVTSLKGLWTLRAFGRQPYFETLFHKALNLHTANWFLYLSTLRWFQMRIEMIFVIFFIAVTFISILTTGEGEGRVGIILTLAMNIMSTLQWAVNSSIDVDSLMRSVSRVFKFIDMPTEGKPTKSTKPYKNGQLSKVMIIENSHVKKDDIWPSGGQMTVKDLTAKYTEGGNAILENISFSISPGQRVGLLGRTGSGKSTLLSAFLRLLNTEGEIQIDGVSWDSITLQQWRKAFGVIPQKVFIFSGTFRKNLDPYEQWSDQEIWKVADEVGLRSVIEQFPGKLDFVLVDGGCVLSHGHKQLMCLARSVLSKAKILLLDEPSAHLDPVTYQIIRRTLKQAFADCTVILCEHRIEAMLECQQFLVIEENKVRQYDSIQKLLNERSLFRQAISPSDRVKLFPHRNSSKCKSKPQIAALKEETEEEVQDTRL

Setting [1] is: Table 10, read-out: Ent. B EC50.

The structures appear in SMILES notation. pEC50: −log10 of the molar value. Where two headings read alike, the source gives them in different places.

On to `Cc1cccc(C)c1-c1cc2nc(n1)NS(=O)(=O)c1cccc(n1)C(=O)N(C1CC3(CC(C(=O)N(C)C)C3)C1)[C@H](CC(C)(C)C)CO2` (stereo partly drawn) [Compound 415], for which, where the note is “Table 10”, the “Ent. B Max Activity (%)” value was “+++ (+++ is >60%)”. The pEC50 under setting [1] is more than 6.00.
In the case of `CO[C@H](C)C(=O)N1CCC2(CC1)CC(N1C(=O)c3cccc(c3)S(=O)(=O)Nc3nc(cc(-c4c(C)cccc4C)n3)OC[C@H]1CC(C)C)C2` [Compound 457], for the setting “Table 9”, the “Ent. B Max Activity (%)” value is given as “+++ (+++ is >60%)”. Further, where the note is “Table 9, read-out: Ent. B EC50”, the pEC50 was more than 6.00.
Regarding `Cc1cccc(C)c1-c1cc2nc(n1)NS(=O)(=O)c1cccc(c1)C(=O)N(C1CC3(CC(C(=O)N(C)C)C3)C1)[C@H](CC(C)(C)C)CO2` (single isomer, unassigned) [Compound 114], for the setting “Table 10”, the “Ent. B Max Activity (%)” value is listed as “+++ (+++ is >60%)”. For the same compound, the pEC50 under setting [1] was more than 6.00.
Turning to `CO[C@H]1C[C@@H](N2C(=O)c3cccc(c3)S(=O)(=O)Nc3nc(cc(-c4c(C)cccc4C)n3)OC[C@H]2CC(C)(C)C)C1` (single isomer, unassigned) [Compound 151], the “Ent. B Max Activity (%)” value is “+++ (+++ is >60%)”. The pEC50 (read-out: Ent. B EC50) is more than 6.00.
Take `Cc1cccc(CO)c1-c1cc2nc(n1)NS(=O)(=O)c1cccc(c1)C(=O)N(C1CC3(CC3)C1)[C@H](CC(C)C)CO2` [Compound 2, (11R)-6-[2-(Hydroxymethyl)-6-methyl-phenyl]-11-isobutyl-2,2-dioxo-12-spiro[2.3]hexan-5-yl-9-oxa-2λ^6-thia-3,5,12,19-tetrazatricyclo[12.3.1.14,8]nonadeca-1(18),4(19),5,7,14,16-hexaen-13-one]: the “Ent. B Max Activity (%)” value (Table 10) is reported as “++ (++ is 30-60%)”. Besides, under setting [1], the pEC50 is more than 6.00.
On to `COC(=O)N(C)C1CC(N2C(=O)c3cccc(c3)S(=O)(=O)Nc3nc(cc(-c4c(C)cccc4C)n3)OC[C@H]2CC(C)(C)C)C1` (single isomer, unassigned) [Compound 170], for which, for the setting “Table 10”, the “Ent. B Max Activity (%)” value is “++ (++ is 30-60%)”.
With `Cc1cccc(C)c1-c1cc2nc(n1)NS(=O)(=O)c1cccc(c1)C(=O)N(C1CC3(CCN(CCOC(C)C)CC3)C1)[C@H](CC1(C(F)(F)F)CC1)CO2` [Compound 129, (11R)-6-(2,6-dimethylphenyl)-12-[7-(2-isopropoxyethyl)-7-azaspiro[3.5]nonan-2-yl]-2,2-dioxo-11-[[1-(trifluoromethyl)cyclopropyl]methyl]-9-oxa-2λ^6-thia-3,5,12,19-tetrazatricyclo[12.3.1.14,8]nonadeca-1(18),4(19),5,7,14,16-hexaen-13-one], the “Ent. B Max Activity (%)” value is “+++ (+++ is >60%)”. Moreover, the pEC50 (read-out: Ent. B EC50) is more than 6.00.
In the case of `COC(=O)NCC1CC(N2C(=O)c3cccc(c3)S(=O)(=O)Nc3nc(cc(-c4c(C)cccc4C)n3)OC[C@H]2CC(C)C)C1` (stereo partly drawn) [Compound 263], the “Ent. B Max Activity (%)” value (Table 9) is given as “+++ (+++ is >60%)”. The pEC50 (Table 9, read-out: Ent. B EC50) was more than 6.00.
As to `CCC(=O)N[C@H]1C[C@@]2(C1)C[C@H](N1C(=O)c3cccc(c3)S(=O)(=O)Nc3nc(cc(-c4c(C)cccc4C)n3)OC[C@H]1CC1(C(F)(F)F)CC1)C2` (stereo partly drawn) [Compound 248], the “Ent. B Max Activity (%)” value (Table 10) is “+++ (+++ is >60%)”. Moreover, the pEC50 under setting [1] was more than 6.00.
For the compound `COC(=O)N[C@H]1CC2(C1)C[C@H](N1C(=O)c3cccc(c3)S(=O)(=O)Nc3nc(cc(-c4c(C)cccc4C)n3)OC[C@H]1CC(C)C)C2` (stereo partly drawn) [Compound 304], the “Ent. B Max Activity (%)” value is listed as “+++ (+++ is >60%)”. Where the note is “read-out: Ent. B EC50”, the negative logarithm of the EC50 (pEC50) was more than 6.00.
The matching figures for `Cc1cccc(C)c1-c1cc2nc(n1)NS(=O)(=O)c1cccc(n1)C(=O)N(C1CC3(CCN(C)CC3)C1)[C@H](CC(C)C)CO2` [Compound 390]: “+++ (+++ is >60%)” and more than 6.00.
